Test results from patent publication US5250537A, “5,6,7,8,9,10-hexahydro-7 ,10-iminocyclohept[b]indole,-6,7,8,9,10-hexahydro-7,11-imino-5H-cyclooct[ b]indole and substituted derivatives” (Scios Nova Inc., priority 1992, dated 1993).
Where two headings read alike, the source gives them in different places.

What was measured:
[1] = molecular target: sigma receptor ([3H]DTG site); experiment: In Vitro Sigma Receptor Binding, [3H]DTG; settings: guinea pig brain; 45 minutes at 25° C.
Protocol: (§1) For both assays frozen guinea pig brains (PelFreez Biologicals, Rogers, AK) were thawed and homogenized in 10 volumes (w/v) of ice cold 0.32M sucrose using 10 strokes of a motor-drivenglass-fitted teflon pestle adjusted to 600 rpm. The homogenate was centrifuged (4° C.) at 900× g for 10 minutes and the resultant supernatant collected and centrifuged at 22,000×g for 20 minutes. The pellet obtained from the centrifugation was resuspended in 10 volumes of 50 mM Tris HCl (pH 7.4, 25° C.) and incubated for 30 minutes at 37° C. Following the preincubation, the homogenate was centrifuted at 22,000×g for 20 minutes and the final pellet was resuspended in buffer to a protein concentration of 0.5-1.0 mg/mL for use in the assay.
(§2) Binding reactions were initiated by the addition of tissue (800 μL) to tubes containing assay buffer, the radioligand (final concentration 1-3 nM) and the compound of interest. Haloperidol (10 μM) and (+)-3-PPP (10 μM) were used to determine the levels of […] [^3 H]DTG and [^3 H](+)PPP binding, respectively. Final assay volume was 1 mL. Reactions were allowed to proceed for 45 minutes at 25° C. and terminated by rapid filtration over Whatman GF/B filters which were washed 3 times with 5 mL of cold buffer. Radioactivity trapped on the filters was determined using routine methods. […] All assays were performed using triplicate determinations. For comparison purposes, IC50 values are reported rather than Ki values.

[2] = molecular target: T1, sigma receptor ([3H](+)-3-PPP site) (Cavia porcellus, UniProt Q60492); experiment: In Vitro Sigma Receptor Binding, [3H](+)-3-PPP; set-up: species or system guinea pig; settings: guinea pig brain; 45 minutes at 25° C.; read-out: Sigma [3H](+)-3-PPP binding IC50
T1 construct: frozen guinea pig brains; tissue PelFreez Biologicals, Rogers, AK; host or cells: guinea pig brain membranes
T1 sequence (Q60492 whole entry): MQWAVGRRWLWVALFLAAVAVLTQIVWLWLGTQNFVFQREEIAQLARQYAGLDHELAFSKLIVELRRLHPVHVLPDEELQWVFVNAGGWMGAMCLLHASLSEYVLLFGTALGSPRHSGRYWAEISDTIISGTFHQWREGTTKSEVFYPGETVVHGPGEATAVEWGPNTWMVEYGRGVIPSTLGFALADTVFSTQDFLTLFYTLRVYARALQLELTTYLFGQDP
Protocol: as §1, §2

dopamine (D-2) receptors = molecular target: T2, dopamine (D-2) receptors (Rattus norvegicus, UniProt P61169); experiment: In Vitro Dopamine (D-2) Receptor Binding, [3H]sulpiride
T2 construct: the corpus striatum was dissected and homogenized; from tissue; host or cells: rat corpus striatum membranes
T2 sequence (P61169 whole entry): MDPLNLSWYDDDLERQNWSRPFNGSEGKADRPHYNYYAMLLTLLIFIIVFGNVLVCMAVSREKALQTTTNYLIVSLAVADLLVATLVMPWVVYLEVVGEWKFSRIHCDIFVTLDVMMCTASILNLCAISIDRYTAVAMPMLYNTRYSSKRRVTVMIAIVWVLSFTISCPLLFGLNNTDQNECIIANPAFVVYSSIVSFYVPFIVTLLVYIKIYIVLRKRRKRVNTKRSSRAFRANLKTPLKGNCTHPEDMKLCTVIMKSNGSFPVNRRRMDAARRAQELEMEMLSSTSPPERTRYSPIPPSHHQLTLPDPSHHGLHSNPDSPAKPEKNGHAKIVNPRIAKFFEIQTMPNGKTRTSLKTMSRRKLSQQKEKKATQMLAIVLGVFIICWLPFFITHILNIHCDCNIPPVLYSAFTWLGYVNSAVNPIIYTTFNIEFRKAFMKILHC
Protocol: On the day of assay, rats were sacrificed by decapitation, the corpus striatum was dissected and homogenized in 20 volumes of ice-cold 50 mM Tris HCl (pH 7.5, 25° C.). The homogenate was centrifuged (4° C.) at 48,000×g for 10 minutes and the resulting pellet was resuspended in 20 volumes of fresh buffer and recentrifuged. […] A portion of the suspension (800 μL) was added in triplicate to tubes containing 3 nM [^3 H]sulpiride and the test compound. The final assay volume was 1 mL; haloperidol (10 μM) was used to determine non-specific binding. Following a 60 minute incubation at 25° C., the reactions were terminated by rapid filtration over Whatman GF/B filters which had been pretreated in a solution of 0.3% (w/v) of aqueous polyethylenimine. Filters were washed three times using 5 mL of ice-cold buffer and processed using standard procedures to determine radioactivity. IC50 values were obtained from concentration-response curves in which a number of concentrations of test compound were examined. Ki values were determined using the Cheng-Prusoff equation.

[3] = molecular target: T3, serotonin 5-HT2 receptors (Rattus norvegicus, UniProt P14842); experiment: In Vitro Serotonin (5-HT2) Receptor Binding, [3H]ketanserin; settings: for Ki: rat cortical membranes, 1 nM [3H]ketanserin
T3 construct: Rat cortical synaptosomal membranes were prepared on the day of assay; from tissue; host or cells: rat frontal cortex synaptosomal membranes
T3 sequence (P14842 whole entry): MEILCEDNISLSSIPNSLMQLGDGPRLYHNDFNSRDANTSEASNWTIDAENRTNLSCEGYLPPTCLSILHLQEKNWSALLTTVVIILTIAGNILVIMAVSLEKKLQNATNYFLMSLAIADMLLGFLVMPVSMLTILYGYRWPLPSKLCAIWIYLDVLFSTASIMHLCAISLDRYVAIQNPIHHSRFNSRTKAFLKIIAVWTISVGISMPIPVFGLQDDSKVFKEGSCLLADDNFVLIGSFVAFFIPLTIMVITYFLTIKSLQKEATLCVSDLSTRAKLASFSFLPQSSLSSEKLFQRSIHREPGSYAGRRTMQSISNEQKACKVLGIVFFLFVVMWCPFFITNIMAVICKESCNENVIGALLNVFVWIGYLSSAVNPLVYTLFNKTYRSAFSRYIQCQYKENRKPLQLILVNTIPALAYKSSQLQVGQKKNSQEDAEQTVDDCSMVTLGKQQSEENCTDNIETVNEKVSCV
Protocol: The potency of compounds to inhibit the specific binding of [^3 H]ketanserin (84.2 Ci/mM) to serotonin 5-HT2 receptors was determined as detailed previously [J. E. Leysen, C. J. E. Niemegers, J. M. Van Neuten and P. M. Laduron, Mol. Pharmacol., 21, 301-314 (1982)]. Rat cortical synaptosomal membranes were prepared on the day of assay. Animals were sacrified by decapitation, the frontal cortex was removed and homogenized in 10 volumes (w/v) of ice-cold 0.32M sucrose using a motor driven teflon pestle fitted to a glass tube. The synaptosomal pellet was suspended in 50 mM Tris HCl (pH 7.6 at 25° C.) to a concentration of 7.5 mg original wet weight/mL. For the binding reaction, 400 μL of this tissue suspension was added to polypropylene tubes containing 50 mM Tris HCl and [^3 H]ketanserin (final concentration of 1 nM) in a final assay volume of 0.5 mL. Following a 15 minute incubation at 37° C., the binding reaction was terminated by rapid vacuum filtration over Whatman GF/B filters (presoaked in 0.1% PEI) followed by 3×4 mL washes with ice cold 50 mM Tris HCl. Nonspecific binding was assessed in the presence of 10 μM methysergide. All incubations were performed in triplicate. IC50 values were determined using log logit analysis.

[4] = rat corpus striatum, 3 nM [3H]sulpiride, read-out: Dopamine D-2 [3H]sulpiride Ki
[5] = read-out: Serotonin 5-HT2 [3H]ketanserin, % @ 1 μM
[6] = read-out: Dopamine D-2 [3H]sulpiride Ki
[7] = Dopamine D-2 [3H]sulpiride Ki, rat corpus striatum, 3 nM [3H]sulpiride
[8] = read-out: Serotonin 5-HT2 [3H]ketanserin, value @ 1 μM

SMILES | IC50 [1] [nM] | IC50 [2] [nM] | Ki (dopamine (D-2) receptors; [4]) [nM] | inhibition at 1 µM [3, 5] [%] | Ki [3] [nM] | also measured
CC(CCc1ccccc1)N1C2CCC1c1c([nH]c3ccccc13)C2 (single isomer, unassigned) [1 (high Rf) H H CH(CH3)(CH2)2 Ph 2] | 23 | 1500 | 1110 | – | – | –
CC(CCc1ccccc1)N1C2CCC1c1c([nH]c3ccccc13)C2 (single isomer, unassigned) [1 (low Rf) H H CH(CH3)(CH2)2 Ph 2] | 119 | 1160 | 530 | 72.8 | – | –
Clc1ccc(CCN2C3CCC2c2c([nH]c4ccccc24)C3)cc1Cl (centres unmarked) [1 H H (CH2)2 3,4-Cl2 Ph 2] | – | – | 3430 | 6.7 | – | –
CCCN1C2CCC1c1c([nH]c3ccccc13)C2 (centres unmarked) [1 H H (CH2)2 CH3 2] | – | – | 14400 ± 4400 | – | – | –
C=CCCN1C2CCC1c1c([nH]c3ccccc13)C2 (centres unmarked) [1 H H (CH2)2 CHCH2 2] | – | – | 710 | 12.3 | – | –
c1ccc(C(CCN2C3CCC2c2c([nH]c4ccccc24)C3)c2ccccc2)cc1 (centres unmarked) [1 H H (CH2)2 CHPh2 2] | – | – | 4520 | 27.3 | – | –
Clc1ccc(OCCN2C3CCC2c2c([nH]c4ccccc24)C3)cc1 (centres unmarked) [1 H H (CH2)2 O-4-ClPh 2] | 268 ± 38 | 5980 ± 3510 | 530 | – | 377 | –
c1ccc(OCCN2C3CCC2c2c([nH]c4ccccc24)C3)cc1 (centres unmarked) [1 H H (CH2)2 OPh 2] | 110 ± 14 | 534 ± 57 | 2600 | – | 20 | –
c1ccc(CCN2C3CCC2c2c([nH]c4ccccc24)C3)cc1 (centres unmarked) [1 H H (CH2)2 Ph 2] | – | – | 840 | 8.8 | – | –
O=C(CCCN1C2CCC1c1c([nH]c3ccccc13)C2)c1ccc(F)cc1 (centres unmarked) [1 H H (CH2)3 CO 4-FPh 2] | – | – | 280 | – | 0.82 | –
Fc1ccc(OCCCN2C3CCC2c2c([nH]c4ccccc24)C3)cc1 (centres unmarked) [1 H H (CH2)3 O-4-FPh 2] | – | – | – | – | 11.4 | –
c1ccc(OCCCN2C3CCC2c2c([nH]c4ccccc24)C3)cc1 (centres unmarked) [1 H H (CH2)3 OPh 2] | 132 ± 16 | 262 ± 19 | 1270 ± 260 | – | 22.9 | –
c1ccc(CCCN2C3CCC2c2c([nH]c4ccccc24)C3)cc1 (centres unmarked) [1 H H (CH2)3 Ph 2] | – | – | 2600 | – | 106 | –
Fc1ccc(CCCCN2C3CCC2c2c([nH]c4ccccc24)C3)cc1 (centres unmarked) [1 H H (CH2)4 4-FPh 2] | – | – | – | – | 22.1 | Ki (dopamine (D-2) receptors; [6]): 1160 nM
O=C(CCCCN1C2CCC1c1c([nH]c3ccccc13)C2)c1ccc(F)cc1 (centres unmarked) [1 H H (CH2)4 CO 4-FPh 2] | 131 | 224 | – | – | – | Ki (dopamine (D-2) receptors; [7]): 3.5 nM
c1ccc(OCCCCN2C3CCC2c2c([nH]c4ccccc24)C3)cc1 (centres unmarked) [1 H H (CH2)4 OPh 2] | 88 ± 15 | 205 | 100 | – | 48 | –
c1ccc(CCCCN2C3CCC2c2c([nH]c4ccccc24)C3)cc1 (centres unmarked) [1 H H (CH2)4 Ph 2] | – | – | – | – | 56.5 | Ki (dopamine (D-2) receptors; [7]): 720 nM
O=C1CC2(CCCC2)CC(=O)N1CCCCN1C2CCC1c1c([nH]c3ccccc13)C2 (centres unmarked) [1 H H (CH2)4 [drawing 3] 2] | – | – | – | 12 | – | Ki (dopamine (D-2) receptors; [7]): 2380 ± 560 nM
c1ccc(CCCCCN2C3CCC2c2c([nH]c4ccccc24)C3)cc1 (centres unmarked) [1 H H (CH2)5 Ph 2] | 107 ± 59 | 348 ± 70 | 680 ± 230 | – | 42.5 | –
c1ccc2c3c([nH]c2c1)CC1CCC3N1 (centres unmarked) [1 H H -- H 2] | – | 2180 | 100000 | 0.2 | – | –

SMILES | IC50 [1] [nM] | IC50 [2] [nM] | Ki (dopamine (D-2) receptors; [4]) [nM] | inhibition at 1 µM [3, 5] [%] | Ki [3] [nM] | also measured
c1ccc(CN2C3CCC2c2c([nH]c4ccccc24)C3)cc1 (centres unmarked) [1 H H CH2 Ph 2] | – | – | 3650 | 22.4 | – | –
C(=C\c1ccccc1)/CN1C2CCC1c1c([nH]c3ccccc13)C2 (centres unmarked) [1 H H E-CH2 CHCH Ph 2] | – | – | 2460 | 36.6 | – | –
O=C(CCCN1C2CCC1c1c(n(-c3ccccc3)c3ccccc13)C2)c1ccc(F)cc1 (centres unmarked) [2 H Ph (CH2)3 CO 4-FPh 2] | 528 | 510 | 840 | – | 814 | –
CN1C2CCC1c1c([nH]c3ccccc13)C2 (centres unmarked) [3 H H -- CH3 2] | – | – | 16700 ± 6000 | 26.4 | – | –
Fc1ccc2[nH]c3c(c2c1)C1CCC(C3)N1CCCc1cccnc1 (centres unmarked) [4 F H (CH2)3 3-pyridyl 2] | – | – | 12200 ± 4700 | 0 | – | –
O=C(CCCN1C2CCC1c1c([nH]c3ccc(F)cc13)C2)c1ccc(F)cc1 (centres unmarked) [4 F H (CH2)3 CO 4-FPh 2] | 55 | 408 | – | – | 2.07 | –
OCCCN1C2CCC1c1c([nH]c3ccc(F)cc13)C2 (centres unmarked) [4 F H (CH2)3 OH 2] | 317 ± 49 | 1380 ± 188 | 37300 | – | – | inhibition at 1 µM [3, 8]: 5.6%
Fc1ccc2[nH]c3c(c2c1)C1CCC(C3)N1CCCCc1ccccc1 (centres unmarked) [4 F H (CH2)4 Ph 2] | – | – | – | – | 74 | Ki (dopamine (D-2) receptors; [6]): 770 nM
Fc1ccc2[nH]c3c(c2c1)C1CCC(C3)N1 (centres unmarked) [4 F H -- H 2] | – | – | 36600 | 28.2 | – | –
Fc1ccc2[nH]c3c(c2c1)C1CCC(C3)N1Cc1ccccc1I (centres unmarked) [4 F H CH2 2-IPh 2] | – | – | 531000 | 0 | – | –
Fc1ccc2[nH]c3c(c2c1)C1CCC(C3)N1Cc1ccccc1 (centres unmarked) [4 F H CH2 Ph 2] | 86 ± 14 | 908 ± 222 | 3740 | 3.3 | – | –
CC(C)n1c2c(c3ccccc31)C1CCC(C2)N1CCCCc1ccccc1 (centres unmarked) [5 H 2-Pr (CH2)4 Ph 2] | 231 | 705 ± 20 | 2640 ± 270 | 46 | – | –
c1ccc(CCN2C3CCC2c2c(n(Cc4ccccc4)c4ccccc24)C3)cc1 (centres unmarked) [5 H Bn (CH2)2 Ph 2] | – | – | 1620 | 23.3 | – | –
c1ccc(CCCCN2C3CCC2c2c(n(Cc4ccccc4)c4ccccc24)C3)cc1 (centres unmarked) [5 H Bn (CH2)4 Ph 2] | 267 ± 87 | 396 ± 92 | 1830 | – | 506 | –
Cn1c2c(c3ccccc31)C1CCC(C2)N1CCCCc1ccccc1 (centres unmarked) [5 H CH3 (CH2)4 Ph 2] | – | – | 1820 ± 80 | 49 | – | –
O=C1c2ccccc2C(=O)N1CCN1C2CCC1c1c([nH]c3ccccc13)C2 (centres unmarked) [6 H H (CH2)2 2-phthalimido 2] | – | – | 52100 | – | – | inhibition at 1 µM [3, 8]: 5.3%
Fc1ccc2[nH]c3c(c2c1)C1CCC(C3)N1CCCN1Cc2ccccc2C1 (centres unmarked) [7 F H (CH2)3 2-isoindolinyl 2] | – | – | 1780 ± 630 | – | – | inhibition at 1 µM [3, 8]: 72.2%
c1ccc2c(c1)CN(CCN1C3CCC1c1c([nH]c4ccccc14)C3)C2 (centres unmarked) [7 H H (CH2)2 2-isoindolinyl 2] | – | – | 2200 ± 180 | – | – | inhibition at 1 µM [3, 8]: 55.1%
Clc1ccc(OCCN2C3CCC2c2c([nH]c4ccccc24)C3)cc1Cl (centres unmarked) [7 H H (CH2)2 O-3,4-Cl2 Ph 2] | – | – | 650 | 48.9 | – | –
CN(CCc1ccc(Cl)c(Cl)c1)CCN1C2CCC1c1c([nH]c3ccccc13)C2 (centres unmarked) [9 H H (CH2)2 N(CH3)CH2 CH2-3,4-Cl2 Ph 2] | – | – | 2530 ± 160 | – | – | inhibition at 1 µM [3, 8]: 34.7%
